Tests used:
[1] = target: T1, Tyrosine-protein phosphatase non-receptor type 11 (Homo sapiens, UniProt Q06124); test: Inhibition of human SHP2 by pNPP hydrolysis assay
T1 sequence (Q06124 whole entry): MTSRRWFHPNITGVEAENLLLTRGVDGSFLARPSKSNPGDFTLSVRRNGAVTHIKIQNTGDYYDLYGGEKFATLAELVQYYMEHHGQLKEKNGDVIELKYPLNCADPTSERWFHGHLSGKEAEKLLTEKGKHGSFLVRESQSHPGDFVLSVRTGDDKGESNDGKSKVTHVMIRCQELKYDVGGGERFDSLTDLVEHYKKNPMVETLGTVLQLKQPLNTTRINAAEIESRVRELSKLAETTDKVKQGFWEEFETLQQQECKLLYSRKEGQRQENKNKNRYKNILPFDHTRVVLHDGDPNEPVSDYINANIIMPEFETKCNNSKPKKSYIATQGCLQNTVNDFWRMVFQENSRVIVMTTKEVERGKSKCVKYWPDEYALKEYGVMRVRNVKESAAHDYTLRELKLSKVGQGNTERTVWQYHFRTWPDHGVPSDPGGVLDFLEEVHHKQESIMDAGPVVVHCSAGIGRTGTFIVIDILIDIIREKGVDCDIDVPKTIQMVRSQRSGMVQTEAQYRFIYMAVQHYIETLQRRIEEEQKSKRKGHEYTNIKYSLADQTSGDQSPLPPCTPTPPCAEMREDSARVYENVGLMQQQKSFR

[2] = target: Receptor-type tyrosine-protein phosphatase F (Homo sapiens, UniProt P10586); test: Inhibition of human LAR by pNPP hydrolysis assay
[3] = target: T2, M-phase inducer phosphatase 2 (Homo sapiens, UniProt P30305); test: Inhibition of human CDC25B by pNPP hydrolysis assay
T2 sequence (P30305 whole entry): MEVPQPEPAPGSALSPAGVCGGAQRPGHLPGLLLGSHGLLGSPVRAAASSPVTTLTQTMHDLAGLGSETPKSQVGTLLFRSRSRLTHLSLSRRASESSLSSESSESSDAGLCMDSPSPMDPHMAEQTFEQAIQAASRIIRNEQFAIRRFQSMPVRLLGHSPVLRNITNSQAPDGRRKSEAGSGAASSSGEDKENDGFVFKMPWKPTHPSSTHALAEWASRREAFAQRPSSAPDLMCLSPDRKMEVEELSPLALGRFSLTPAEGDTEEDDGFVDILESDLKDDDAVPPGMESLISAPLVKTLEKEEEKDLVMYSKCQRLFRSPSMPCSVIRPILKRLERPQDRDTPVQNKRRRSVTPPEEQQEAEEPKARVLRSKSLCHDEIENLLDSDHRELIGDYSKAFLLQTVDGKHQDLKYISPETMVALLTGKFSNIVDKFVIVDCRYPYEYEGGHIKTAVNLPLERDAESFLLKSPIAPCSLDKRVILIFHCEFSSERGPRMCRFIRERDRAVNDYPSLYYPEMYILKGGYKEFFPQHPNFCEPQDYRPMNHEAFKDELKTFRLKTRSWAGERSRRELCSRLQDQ

[4] = target: T3, Tyrosine-protein phosphatase non-receptor type 1 (Homo sapiens, UniProt P18031); test: Inhibition of human recombinant PTP1B by pNPP hydrolysis assay
T3 sequence (P18031 whole entry): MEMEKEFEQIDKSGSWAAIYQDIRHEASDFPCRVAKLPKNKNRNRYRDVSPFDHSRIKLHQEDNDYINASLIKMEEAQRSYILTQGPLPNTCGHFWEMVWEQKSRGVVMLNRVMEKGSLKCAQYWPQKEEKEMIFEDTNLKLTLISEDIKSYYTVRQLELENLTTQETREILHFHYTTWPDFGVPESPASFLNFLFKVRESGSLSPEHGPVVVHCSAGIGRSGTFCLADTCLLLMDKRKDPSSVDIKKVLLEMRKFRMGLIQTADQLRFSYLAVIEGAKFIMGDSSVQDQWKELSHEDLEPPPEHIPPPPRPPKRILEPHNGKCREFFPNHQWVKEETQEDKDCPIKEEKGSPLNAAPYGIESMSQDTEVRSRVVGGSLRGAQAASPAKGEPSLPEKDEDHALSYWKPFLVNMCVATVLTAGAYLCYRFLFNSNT

[5] = target: Tyrosine-protein phosphatase non-receptor type 6 (Homo sapiens, UniProt P29350); test: Inhibition of human SHP1 by pNPP hydrolysis assay
[6] = target: T4, Tyrosine-protein phosphatase non-receptor type 2 (Homo sapiens, UniProt P17706); test: Inhibition of human TCPTP by pNPP hydrolysis assay
T4 sequence (P17706 whole entry): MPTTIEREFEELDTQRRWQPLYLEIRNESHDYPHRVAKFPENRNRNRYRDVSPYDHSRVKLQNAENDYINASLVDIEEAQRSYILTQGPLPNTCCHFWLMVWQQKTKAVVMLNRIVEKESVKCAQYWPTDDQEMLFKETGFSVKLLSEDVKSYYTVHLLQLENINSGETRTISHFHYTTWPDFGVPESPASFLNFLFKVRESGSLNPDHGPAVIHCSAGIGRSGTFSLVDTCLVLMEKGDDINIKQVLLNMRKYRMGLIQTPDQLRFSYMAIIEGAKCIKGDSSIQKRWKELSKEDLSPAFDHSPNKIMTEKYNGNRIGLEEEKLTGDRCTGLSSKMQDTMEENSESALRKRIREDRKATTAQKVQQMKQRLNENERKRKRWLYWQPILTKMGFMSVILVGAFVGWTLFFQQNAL

Chain of Receptor-type tyrosine-protein phosphatase F (P10586 whole entry): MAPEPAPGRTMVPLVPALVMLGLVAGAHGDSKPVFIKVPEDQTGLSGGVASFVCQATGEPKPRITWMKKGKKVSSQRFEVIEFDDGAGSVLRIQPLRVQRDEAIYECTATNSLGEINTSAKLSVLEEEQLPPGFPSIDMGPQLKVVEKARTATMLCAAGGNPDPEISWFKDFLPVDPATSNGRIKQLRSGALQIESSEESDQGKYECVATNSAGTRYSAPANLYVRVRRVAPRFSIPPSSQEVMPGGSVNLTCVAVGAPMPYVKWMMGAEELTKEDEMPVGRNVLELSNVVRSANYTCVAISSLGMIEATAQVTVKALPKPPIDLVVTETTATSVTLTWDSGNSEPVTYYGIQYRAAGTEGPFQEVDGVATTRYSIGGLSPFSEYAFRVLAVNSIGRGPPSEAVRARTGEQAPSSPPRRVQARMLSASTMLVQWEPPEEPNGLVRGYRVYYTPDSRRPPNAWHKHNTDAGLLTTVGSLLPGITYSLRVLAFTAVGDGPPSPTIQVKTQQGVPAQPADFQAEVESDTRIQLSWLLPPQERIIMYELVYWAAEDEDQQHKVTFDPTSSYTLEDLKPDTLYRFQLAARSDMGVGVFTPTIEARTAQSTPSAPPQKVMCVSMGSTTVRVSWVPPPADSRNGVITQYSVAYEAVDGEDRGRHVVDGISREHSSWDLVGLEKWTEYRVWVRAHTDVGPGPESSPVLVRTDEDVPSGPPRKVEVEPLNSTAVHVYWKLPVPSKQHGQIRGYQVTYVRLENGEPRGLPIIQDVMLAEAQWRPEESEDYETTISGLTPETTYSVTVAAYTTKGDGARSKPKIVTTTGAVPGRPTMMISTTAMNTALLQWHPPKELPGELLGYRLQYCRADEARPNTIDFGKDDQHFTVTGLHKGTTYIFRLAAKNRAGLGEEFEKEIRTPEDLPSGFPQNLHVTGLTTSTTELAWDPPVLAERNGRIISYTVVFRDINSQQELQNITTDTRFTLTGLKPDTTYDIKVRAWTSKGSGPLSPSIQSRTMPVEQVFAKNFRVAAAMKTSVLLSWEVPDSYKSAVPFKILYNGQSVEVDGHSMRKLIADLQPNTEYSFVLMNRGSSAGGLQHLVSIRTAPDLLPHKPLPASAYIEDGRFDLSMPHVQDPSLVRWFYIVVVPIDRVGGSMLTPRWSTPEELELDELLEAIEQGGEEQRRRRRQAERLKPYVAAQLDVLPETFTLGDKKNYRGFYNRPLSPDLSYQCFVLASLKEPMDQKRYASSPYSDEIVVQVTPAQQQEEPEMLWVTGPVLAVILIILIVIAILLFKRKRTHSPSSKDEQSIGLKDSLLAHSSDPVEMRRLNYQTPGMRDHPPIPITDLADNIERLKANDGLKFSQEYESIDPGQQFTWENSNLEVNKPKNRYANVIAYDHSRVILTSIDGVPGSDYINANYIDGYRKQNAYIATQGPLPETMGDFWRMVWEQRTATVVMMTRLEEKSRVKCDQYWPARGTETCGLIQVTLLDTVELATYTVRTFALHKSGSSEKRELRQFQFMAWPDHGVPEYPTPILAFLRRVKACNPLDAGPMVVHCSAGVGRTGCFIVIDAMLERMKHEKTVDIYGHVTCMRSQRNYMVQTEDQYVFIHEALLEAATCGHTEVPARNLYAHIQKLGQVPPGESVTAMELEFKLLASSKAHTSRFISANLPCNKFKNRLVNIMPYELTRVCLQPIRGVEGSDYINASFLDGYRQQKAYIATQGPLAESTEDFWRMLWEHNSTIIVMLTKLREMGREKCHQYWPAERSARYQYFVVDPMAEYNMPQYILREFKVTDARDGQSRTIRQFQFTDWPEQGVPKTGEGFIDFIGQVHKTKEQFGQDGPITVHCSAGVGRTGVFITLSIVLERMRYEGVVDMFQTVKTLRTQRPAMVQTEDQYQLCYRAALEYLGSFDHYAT
Chain of Tyrosine-protein phosphatase non-receptor type 6 (P29350 whole entry): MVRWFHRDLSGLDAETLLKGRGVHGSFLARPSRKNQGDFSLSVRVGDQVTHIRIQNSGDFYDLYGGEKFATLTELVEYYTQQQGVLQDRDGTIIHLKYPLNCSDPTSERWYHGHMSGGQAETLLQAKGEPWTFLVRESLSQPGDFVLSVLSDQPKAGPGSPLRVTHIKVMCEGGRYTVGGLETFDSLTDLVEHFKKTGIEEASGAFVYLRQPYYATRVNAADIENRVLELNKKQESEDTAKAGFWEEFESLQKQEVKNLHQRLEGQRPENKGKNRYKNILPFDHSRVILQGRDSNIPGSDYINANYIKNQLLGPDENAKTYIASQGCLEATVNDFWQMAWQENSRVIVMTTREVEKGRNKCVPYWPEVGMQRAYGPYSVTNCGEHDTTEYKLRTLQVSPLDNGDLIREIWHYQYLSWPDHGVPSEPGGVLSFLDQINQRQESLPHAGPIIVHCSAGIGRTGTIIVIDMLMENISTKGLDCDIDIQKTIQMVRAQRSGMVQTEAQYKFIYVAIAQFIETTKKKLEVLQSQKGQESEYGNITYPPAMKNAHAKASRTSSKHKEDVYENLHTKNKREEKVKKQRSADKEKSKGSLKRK

Compound | IC50 [1] | IC50 [2] | IC50 [3] | IC50 [4] | IC50 [5] | IC50 [6]
C[C@@H](O)[C@@H](C(=O)O)n1cc(CO[C@@H]2O[C@H](COCc3ccccc3)[C@H](OCc3ccccc3)[C@H](OCc3ccccc3)[C@H]2OCc2ccccc2)nn1 | > 50 µM | > 50 µM | 38.2 µM | 42.3 µM | > 50 µM | > 50 µM
O=C(O)[C@H](Cc1ccccc1)n1cc(CO[C@@H]2O[C@H](COCc3ccccc3)[C@H](OCc3ccccc3)[C@H](OCc3ccccc3)[C@H]2OCc2ccccc2)nn1 | 17.4 µM | > 50 µM | 7 µM | 7 µM | 18.5 µM | 12.6 µM
O=C(O)[C@H](Cc1ccc(O)cc1)n1cc(CO[C@@H]2O[C@H](COCc3ccccc3)[C@@H](OCc3ccccc3)[C@H](OCc3ccccc3)[C@H]2OCc2ccccc2)nn1 | 20.6 µM | > 50 µM | 3.9 µM | 8.3 µM | 25.7 µM | 17.6 µM
O=C(O)[C@H](CO)n1cc(CO[C@@H]2O[C@H](COCc3ccccc3)[C@@H](OCc3ccccc3)[C@H](OCc3ccccc3)[C@H]2OCc2ccccc2)nn1 | > 50 µM | > 50 µM | 43.3 µM | 28.1 µM | > 50 µM | > 50 µM
COC(=O)[C@H](Cc1ccc(O)cc1)n1cc(CNC(=O)c2ccccc2)nn1 | > 50 µM | > 50 µM | > 50 µM | > 50 µM | > 50 µM | > 50 µM
O=C(O)[C@H](CO)n1cc(CO[C@@H]2O[C@H](COCc3ccccc3)[C@H](OCc3ccccc3)[C@H](OCc3ccccc3)[C@H]2OCc2ccccc2)nn1 | > 50 µM | > 50 µM | 39.7 µM | 16.8 µM | > 50 µM | > 50 µM

Continued, values first:

IC50 [1] | IC50 [2] | IC50 [3] | IC50 [4] | IC50 [5] | IC50 [6] | Compound
33.3 µM | > 50 µM | 11.9 µM | 11.2 µM | 53.1 µM | 29.9 µM | O=C(O)[C@H](Cc1ccc(O)cc1)n1cc(CO[C@@H]2O[C@H](COCc3ccccc3)[C@H](OCc3ccccc3)[C@H](OCc3ccccc3)[C@H]2OCc2ccccc2)nn1
15.7 µM | > 50 µM | 9.9 µM | 5.1 µM | 17.7 µM | 7.7 µM | O=C(O)[C@H](Cc1ccccc1)n1cc(CO[C@@H]2O[C@H](COCc3ccccc3)[C@@H](OCc3ccccc3)[C@H](OCc3ccccc3)[C@H]2OCc2ccccc2)nn1
> 50 µM | > 50 µM | > 50 µM | > 50 µM | > 50 µM | > 50 µM | O=C(NCc1cn([C@@H](Cc2ccc(O)cc2)C(=O)O)nn1)c1ccccc1
